This passage reports IC50 results from patent US20120157452A1, “1H-PYRAZOLO[3,4-B] PYRIDINE COMPOUNDS FOR INHIBITING RAF KINASE” (GENENTECH, INC., priority 2009, published 2012).

The test deals with T1, V600E full-length B-Raf (Homo sapiens, UniProt P15056, V600E).
T1 construct: made in house; host or cells: Sf9 insect cells (baculovirus)
Kind of test: B-Raf IC50 assay: incorporation of radio labeled phosphate from [γ-33P]ATP into FSBA-modified wild-type MEK. The test is classed as biochemical. The source says: Determining the activity of Raf in the sample is possible by a number of direct and indirect detection methods (US 2004/0082014). Activity of human recombinant B-Raf protein may be assessed in vitro by assay of the incorporation of radio labeled phosphate to recombinant MAP kinase (MEK), a known physiologic substrate of B-Raf, according to US 2004/0127496 and WO 03/022840. The activity/inhibition of V600E full-length B-Raf was estimated by measuring the incorporation of radio labeled phosphate from [γ-^33]ATP into FSBA-modified wild-type MEK (see Biological Example 1).
Activity of human recombinant B-Raf protein may be assessed in vitro by assay of the incorporation of radio labeled phosphate to recombinant MAP kinase (MEK), a known physiologic substrate of B-Raf, according to US 2004/0127496 and WO 03/022840. Catalytically active human recombinant B-Raf protein is obtained by purification from sf9 insect cells infected with a human B-Raf recombinant baculovirus expression vector.
The activity/inhibition of V600E full-length B-Raf was estimated by measuring the incorporation of radio labeled phosphate from [γ-^33]ATP into FSBA-modified wild-type MEK. The 30-μL, assay mixtures contained 25 mM Na Pipes, pH 7.2, 100 mM KCl, 10 mM MgCl2, 5 mM β-glycerophosphate, 100 μM Na Vanadate, 4 μM ATP, 500 nCi [γ-^33P]ATP, 1 μM FSBA-MEK and 20 nM V600E full-length B-Raf. Incubations were carried out at 22° C. in a Costar 3365 plate (Corning). Prior to the assay, the B-Raf and FSBA-MEK were preincubated together in assay buffer at 1.5× (20 μL of 30 nM and 1.5 μM, respectively) for 15 minutes, and the assay was initiated by the addition of 10 μL of […]. Following the 60-minute incubation, the assay mixtures were quenched by the addition of 100 μL of 25% TCA, the plate was mixed on a rotary shaker for 1 minute, and the product was captured on a Perkin-Elmer GF/B filter plate using a Tomtec Mach III Harvester. After sealing the bottom of the plate, 35 μL of Bio-Safe II (Research Products International) scintillation cocktail were added to each well and the plate was top-sealed and counted in a Topcount NXT (Packard).

Setting [1] is: 4 μM ATP, 60-minute incubation, representative data of multiple tests.

T1 sequence (P15056 whole entry V600E): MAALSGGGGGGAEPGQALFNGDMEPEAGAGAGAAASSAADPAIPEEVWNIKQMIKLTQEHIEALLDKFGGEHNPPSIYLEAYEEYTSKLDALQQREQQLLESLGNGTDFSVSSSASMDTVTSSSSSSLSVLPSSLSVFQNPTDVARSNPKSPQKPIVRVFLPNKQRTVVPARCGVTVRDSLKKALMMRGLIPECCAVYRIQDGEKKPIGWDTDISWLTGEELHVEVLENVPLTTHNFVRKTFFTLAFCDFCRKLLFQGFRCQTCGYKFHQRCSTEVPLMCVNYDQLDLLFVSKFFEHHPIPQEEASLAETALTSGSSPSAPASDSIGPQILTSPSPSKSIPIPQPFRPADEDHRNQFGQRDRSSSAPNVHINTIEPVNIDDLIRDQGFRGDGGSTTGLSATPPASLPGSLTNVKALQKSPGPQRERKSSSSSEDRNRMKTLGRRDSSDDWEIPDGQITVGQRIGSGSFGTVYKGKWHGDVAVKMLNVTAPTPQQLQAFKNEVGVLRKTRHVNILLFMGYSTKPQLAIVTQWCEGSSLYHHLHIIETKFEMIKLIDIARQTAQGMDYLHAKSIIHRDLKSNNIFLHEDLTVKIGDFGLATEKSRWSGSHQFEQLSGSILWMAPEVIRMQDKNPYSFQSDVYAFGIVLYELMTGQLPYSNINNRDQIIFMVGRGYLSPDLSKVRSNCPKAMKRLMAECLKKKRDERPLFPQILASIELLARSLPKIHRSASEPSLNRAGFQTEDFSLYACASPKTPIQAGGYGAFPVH

As a reminder, the IC50 is the midpoint of a concentration-inhibition curve. For `COc1n[nH]c2ncc(NC(=O)c3c(Cl)ccc(OCc4ccc(I)cc4)c3F)cc12` [Example 47, 6-chloro-2-fluoro-3-(4-iodobenzyloxy)-N-(3-methoxy-1H-pyrazolo[3,4-b]pyridin-5-yl)benzamide], the IC50 is 4.14 nM under setting [1] and under 100 nM (bound stated).

`COc1n[nH]c2ncc(NC(=O)c3c(Cl)ccc(OCc4nccs4)c3F)cc12` [Example 53, 6-chloro-2-fluoro-N-(3-methoxy-1H-pyrazolo[3,4-b]pyridin-5-yl)-3-(thiazol-2-ylmethoxy)benzamide]: the IC50 runs as follows: under setting [1], 13.2 nM; (bound stated) under 100 nM. For `COc1n[nH]c2ncc(NC(=O)c3cc(OCc4ccccc4)ccc3F)cc12` [Example 2, 5-(benzyloxy)-2-fluoro-N-(3-methoxy-1H-pyrazolo[3,4-b]pyridin-5-yl)benzamide], the IC50 was 55.8 nM under setting [1] and under 100 nM (bound stated). `CSc1n[nH]c2ncc(NC(=O)c3c(Cl)ccc(OCc4ccccc4)c3F)cc12` [Example 12, 3-(benzyloxy)-6-chloro-2-fluoro-N-(3-(methylthio)-1H-pyrazolo[3,4-b]pyridin-5-yl)benzamide]: the IC50 is 1.85 nM under setting [1] and under 100 nM (bound stated). In the case of `CCc1n[nH]c2ncc(NC(=O)c3c(Cl)ccc(OCc4ccccc4)c3F)cc12` [Example 6, 3-(benzyloxy)-6-chloro-N-(3-ethyl-1H-pyrazolo[3,4-b]pyridin-5-yl)-2-fluorobenzamide], the IC50 is, setting by setting: under setting [1], 2.52 nM; (bound stated) under 100 nM. On to `COc1n[nH]c2ncc(NC(=O)c3c(C)ccc(OCc4ccc(C(F)(F)F)cc4)c3F)cc12` [Example 73, 2-fluoro-N-(3-methoxy-1H-pyrazolo[3,4-b]pyridin-5-yl)-6-methyl-3-(4-(trifluoromethyl)benzyloxy)benzamide], for which the half-maximal inhibitory concentration (IC50) by setting is: under setting [1], 0.86 nM; (bound stated) under 100 nM.

Turning to `COc1n[nH]c2ncc(NC(=O)c3c(Cl)ccc(OCc4cccc(CN5CCOCC5)c4)c3F)cc12` [Example 64, 6-chloro-2-fluoro-N-(3-methoxy-1H-pyrazolo[3,4-b]pyridin-5-yl)-3-(3-(morpholinomethyl)benzyloxy)benzamide], the IC50 under setting [1] was found to be 9.29 nM and the IC50 (bound stated) is under 100 nM.

With `COc1n[nH]c2ncc(NC(=O)c3c(C)ccc(OCc4ccc(Cl)cn4)c3F)cc12` [Example 74, 3-((5-chloropyridin-2-yl)methoxy)-2-fluoro-N-(3-methoxy-1H-pyrazolo[3,4-b]pyridin-5-yl)-6-methylbenzamide], the IC50 reads like this: under setting [1], 0.51 nM; (bound stated) under 100 nM.

Turning to `COc1n[nH]c2ncc(NC(=O)c3c(Cl)ccc(OCc4ccc(Cl)cn4)c3F)cc12` [Example 45, 6-chloro-3-((5-chloropyridin-2-yl)methoxy)-2-fluoro-N-(3-methoxy-1H-pyrazolo[3,4-b]pyridin-5-yl)benzamide], the IC50 was 0.53 nM under setting [1] and under 100 nM (bound stated). With `COc1n[nH]c2ncc(NC(=O)c3c(Cl)ccc(OCc4ccccc4)c3F)cc12` [Example 4, 3-(benzyloxy)-6-chloro-2-fluoro-N-(3-methoxy-1H-pyrazolo[3,4-b]pyridin-5-yl)benzamide], the IC50 reads like this: under setting [1], 0.62 nM; (bound stated) under 100 nM.

Regarding `COc1n[nH]c2ncc(NC(=O)c3c(Cl)ccc(OCc4ccc(Br)cc4)c3F)cc12` [Example 48, 3-(4-bromobenzyloxy)-6-chloro-2-fluoro-N-(3-methoxy-1H-pyrazolo[3,4-b]pyridin-5-yl)benzamide], the IC50 reads like this: under setting [1], 1.68 nM; (bound stated) under 100 nM.

With `COc1n[nH]c2ncc(NC(=O)c3c(Cl)ccc(OCc4ccccc4Cl)c3F)cc12` [Example 60, 6-chloro-3-(2-chlorobenzyloxy)-2-fluoro-N-(3-methoxy-1H-pyrazolo[3,4-b]pyridin-5-yl)benzamide], the IC50 is 1.28 nM under setting [1] and under 100 nM (bound stated).

As to `COc1n[nH]c2ncc(NC(=O)c3cccc(OCc4ccccc4)c3)cc12` [Example 1, 3-(benzyloxy)-N-(3-methoxy-1H-pyrazolo[3,4-b]pyridin-5-yl)benzamide], the IC50 was 429 nM under setting [1] and under 500 nM (bound stated). Take `COc1n[nH]c2ncc(NC(=O)c3c(Cl)ccc(OCc4ncccn4)c3F)cc12` [Example 41, 6-chloro-2-fluoro-N-(3-methoxy-1H-pyrazolo[3,4-b]pyridin-5-yl)-3-(pyrimidin-2-ylmethoxy)benzamide]: the IC50 by setting is: under setting [1], 152 nM; (bound stated) under 500 nM. For `CCOc1n[nH]c2ncc(NC(=O)c3c(Cl)ccc(OCc4ccccc4)c3F)cc12` [Example 14, 3-(benzyloxy)-6-chloro-N-(3-ethoxy-1H-pyrazolo[3,4-b]pyridin-5-yl)-2-fluorobenzamide], the 50% inhibitory concentration (IC50) under setting [1] came to 0.93 nM and the IC50 (bound stated) was under 100 nM. For `COc1n[nH]c2ncc(NC(=O)c3c(Cl)ccc(OCc4ccc(F)cc4F)c3F)cc12` [Example 62, 6-chloro-3-(2,4-difluorobenzyloxy)-2-fluoro-N-(3-methoxy-1H-pyrazolo[3,4-b]pyridin-5-yl)benzamide], the IC50 reads like this: under setting [1], 1.45 nM; (bound stated) under 100 nM. In the same order, the values of `COc1n[nH]c2ncc(NC(=O)c3c(F)ccc(OCc4ccccc4)c3F)cc12` [Example 26, 3-(benzyloxy)-2,6-difluoro-N-(3-methoxy-1H-pyrazolo[3,4-b]pyridin-5-yl)benzamide] are 2.41 nM and under 100 nM. As for `COc1n[nH]c2ncc(NC(=O)c3c(Cl)ccc(OCc4ccc(Cl)cc4F)c3F)cc12` [Example 66, 6-chloro-3-(4-chloro-2-fluorobenzyloxy)-2-fluoro-N-(3-methoxy-1H-pyrazolo[3,4-b]pyridin-5-yl)benzamide], the IC50 is, setting by setting: under setting [1], 1.5 nM; (bound stated) under 100 nM. In the same order, the values of `CC1(c2n[nH]c3ncc(NC(=O)c4c(Cl)ccc(OCc5ccccc5)c4F)cc23)CC1` [Example 20, 3-(benzyloxy)-6-chloro-2-fluoro-N-(3-(1-methylcyclopropyl)-1H-pyrazolo[3,4-b]pyridin-5-yl)benzamide] are 3.48 nM and under 100 nM. Take `COc1n[nH]c2ncc(NC(=O)c3cccc(OCc4ccccc4)c3C)cc12` [Example 22, 3-(benzyloxy)-N-(3-methoxy-1H-pyrazolo[3,4-b]yridine-5-yl)-2-methylbenzamide]: under setting [1], the IC50 amounted to 585 nM. As to `COc1n[nH]c2ncc(NC(=O)c3c(Cl)ccc(OCc4cnn(C)c4)c3F)cc12` [Example 70, 6-chloro-2-fluoro-N-(3-methoxy-1H-pyrazolo[3,4-b]pyridin-5-yl)-3-((1-methyl-1H-pyrazol-4-yl)methoxy)benzamide], the IC50 was 25.7 nM under setting [1] and under 100 nM (bound stated). Regarding `COc1n[nH]c2ncc(NC(=O)c3cc(OCc4ccccn4)ccc3Cl)cc12` [Example 24, 2-chloro-N-(3-methoxy-1H-pyrazolo[3,4-b]pyridin-5-yl)-5-(pyridin-2-ylmethoxy)benzamide], the IC50 is, setting by setting: under setting [1], 64.9 nM; (bound stated) under 100 nM. As for `O=C(Nc1cnc2[nH]nc(C(F)(F)F)c2c1)c1c(Cl)ccc(OCc2ccccc2)c1F` [Example 8, 3-(benzyloxy)-6-chloro-2-fluoro-N-(3-(trifluoromethyl)-1H-pyrazolo[3,4-b]pyridin-5-yl)benzamide], the IC50 is 5.83 nM under setting [1] and under 100 nM (bound stated). Take `COc1n[nH]c2ncc(NC(=O)c3c(Cl)ccc(OCc4cccc(F)c4)c3F)cc12` [Example 28, 6-chloro-2-fluoro-3-(3-fluorobenzyloxy)-N-(3-methoxy-1H-pyrazolo[3,4-b]pyridin-5-yl)benzamide]: the IC50 reads like this: under setting [1], 0.84 nM; (bound stated) under 100 nM. In the same order, the values of `COc1n[nH]c2ncc(NC(=O)c3c(Cl)ccc(OCc4cccc(C)n4)c3F)cc12` [Example 38, 6-chloro-2-fluoro-N-(3-methoxy-1H-pyrazolo[3,4-b]pyridin-5-yl)-3-((6-methylpyridin-2-yl)methoxy)benzamide] are 15.1 nM and under 100 nM.

As for `O=C(Nc1cnc2[nH]nc(C3CC3)c2c1)c1c(Cl)ccc(OCc2ccccc2)c1F` [Example 35, 3-(benzyloxy)-6-chloro-N-(3-cyclopropyl-1H-pyrazolo[3,4-b]pyridin-5-yl)-2-fluorobenzamide], the IC50 under setting [1] was 2.1 nM and the IC50 (bound stated) was under 100 nM.

As for `COc1n[nH]c2ncc(NC(=O)c3c(Cl)ccc(OCc4ccc(CN5CCOCC5)cc4)c3F)cc12` [Example 75, 6-chloro-2-fluoro-N-(3-methoxy-1H-pyrazolo[3,4-b]pyridin-5-yl)-3-(4-(morpholinomethyl)benzyloxy)benzamide], the concentration for half-maximal inhibition (IC50) runs as follows: under setting [1], 139 nM; (bound stated) under 500 nM.
